In paper PMC11477289, “Low-Basicity 5-HT6 Receptor Ligands from the Group of Cyclic Arylguanidine Derivatives and Their Antiproliferative Activity Evaluation” (International Journal of Molecular Sciences, 2024):

What was measured:
[1] = target: T1, human 5-HT6 (Homo sapiens, UniProt P50406); assay: [3H]-LSD radioligand binding assay, 5-HT6R; conditions: HEK293 expressing human 5-HT6R, read-out: 5-HT6 Ki
T1 construct: expressed in transfected cells
Protocol: Next, the ligands’ affinity for the 5-HT6 receptors was evaluated in the [^3H]-LSD radioligand binding assay. Experiments were performed in a stable HEK293 cell line expressing the human 5-HT6R.
The pellets were stored at −80 °C.

[2] = Chromatographic hydrophobicity index on C18 column (lipophilicity); format: physicochemical
[3] = Affinity to phospholipids, IAM column (CHI IAM); format: physicochemical; conditions: IAM.PC.DD2 column, pH 7.4

T1 sequence (P50406 whole entry): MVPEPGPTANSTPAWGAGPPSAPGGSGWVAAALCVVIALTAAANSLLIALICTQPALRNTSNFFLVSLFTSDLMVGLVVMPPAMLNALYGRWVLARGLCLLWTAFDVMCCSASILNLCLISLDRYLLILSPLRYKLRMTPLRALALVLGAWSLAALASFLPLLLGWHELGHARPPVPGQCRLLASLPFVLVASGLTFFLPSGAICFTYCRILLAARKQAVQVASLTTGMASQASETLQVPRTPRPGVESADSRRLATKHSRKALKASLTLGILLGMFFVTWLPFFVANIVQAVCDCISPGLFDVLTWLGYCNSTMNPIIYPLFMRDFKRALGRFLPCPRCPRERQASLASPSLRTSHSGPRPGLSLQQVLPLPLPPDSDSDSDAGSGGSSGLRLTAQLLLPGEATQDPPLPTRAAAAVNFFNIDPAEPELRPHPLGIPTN

Compound	Ki [1] [nM]	CHI C18 pH 2.6 [2]	CHI C18 pH 7.4 [2]	CHI C18 pH 10.5 [2]	CHI IAM [3]	melting point [°C]
O=S(=O)(Nc1nc2ccccc2[nH]1)c1ccccc1 [PR 10, N -(1H-1,3-benzodiazol-2-yl)benzenesulfonamide]	1720 ± 429					
CC1NC(NS(=O)(=O)c2ccc3ccccc3c2)=Nc2ccc(Cl)cc21 (centres unmarked) [PR 35, N -(6-chloro-4-methyl-3,4-dihydroquinazolin-2-yl)naphthalene-2-sulfonamide]	2380 ± 593					
COc1ccc2c(c1)CNC(NS(=O)(=O)c1cccc3ccccc13)=N2 [PR 59, N -(6-methoxy-3,4-dihydroquinazolin-2-yl)naphthalene-1-sulfonamide]	1960 ± 452	84.9	85.0	88.4	38.2	263 to 266
O=S(=O)(NC1=Nc2ccc(C(F)(F)F)cc2CN1)c1cccc2ccccc12 [PR 57, N -[6-(trifluoromethyl)-3,4-dihydroquinazolin-2-yl]naphthalene-1-sulfonamide]	1020 ± 235					215 to 222
COc1ccc2c(c1)N=C(NS(=O)(=O)c1cccc3ccccc13)NC2 [PR 60, N -(7-methoxy-3,4-dihydroquinazolin-2-yl)naphthalene-1-sulfonamide]	1410 ± 326	88.2	87.0	90.3	39.2	213 to 217
O=S(=O)(NC1=Nc2ccccc2CN1)c1ccc(Cl)c(Cl)c1 [PR 21, N -(3,4-dihydroquinazolin-2-yl)-3,4-dichlorobenzene-1-sulfonamide]	1020 ± 256	94.2	92.3	95.2	42.0	192 to 193
O=S(=O)(NC1=NCc2ccccc2N1)c1ccc2ccccc2c1 [PR 29, N -(3,4-dihydroquinazolin-2-yl)naphthalene-2-sulfonamide]	3630 ± 909					
CC1NC(NS(=O)(=O)c2ccccc2)=Nc2ccccc21 (centres unmarked) [PR 28, N -(4-methyl-3,4-dihydroquinazolin-2-yl)benzenesulfonamide]	4030 ± 1010					
O=S(=O)(NC1=Nc2ccccc2CN1)c1ccc(F)c(F)c1 [PR 15, N -(3,4-dihydroquinazolin-2-yl)-3,4-difluorobenzene-1-sulfonamide]	5270 ± 1330					
O=S(=O)(NC1=NCCc2ccccc2N1)c1ccc2ccccc2c1 [PR 38, N -(4,5-dihydro-1H-1,3-benzodiazepin-2-yl)naphthalene-2-sulfonamide]	1410 ± 331					175 to 180
Nc1nc2ccccc2n1S(=O)(=O)c1ccc2c(c1)CC(=O)N2 [PR 5, 5-[(2-amino-1H-1,3-benzodiazol-1-yl)sulfonyl]-2,3-dihydro-1H-indol-2-one]	14800 ± 3690					
O=S(=O)(NC1=Nc2ccccc2CN1)c1ccc(C(F)(F)F)cc1 [PR 16, N -(3,4-dihydroquinazolin-2-yl)-4-(trifluoromethyl)benzene-1-sulfonamide]	5100 ± 1270					
O=S(=O)(NC1=Nc2ccccc2CN1)c1c(Cl)cccc1Cl [PR 22, 2,6-dichloro-N-(3,4-dihydroquinazolin-2-yl)benzene-1-sulfonamide]	1460 ± 364					168 to 174
O=S(=O)(NC1=Nc2ccccc2CN1)c1ccc(F)cc1 [PR 14, N-(3,4-dihydroquinazolin-2-yl)-4-fluorobenzene-1-sulfonamide]	2440 ± 610	75.4	75.0	75.7	31.3	215 to 216
CC1NC(NS(=O)(=O)c2ccc3ccccc3c2)=Nc2cc(Cl)ccc21 (centres unmarked) [PR 37, N -(7-chloro-4-methyl-3,4-dihydroquinazolin-2-yl)naphthalene-2-sulfonamide]	2220 ± 534	101.0	100.1	102.6	46.1	167 to 171
Cc1c(S(=O)(=O)n2c(N)nc3ccccc32)sc2ccc(F)cc12 [PR 7, 1-[(5-fluoro-3-methyl-1-benzothiophen-2-yl)sulfonyl]-1H-1,3-benzodiazol-2-amine]	2950 ± 737					
O=S(=O)(NC1=NCc2ccccc2N1)c1ccccc1 [PR 13, N-(3,4-dihydroquinazolin-2-yl)benzenesulfonamide]	2610 ± 651					
N -(3,4-dihydroquinazolin-2-yl)naphthalene-2-sulfonamide [PR 39]	4270 ± 983					
O=S(=O)(NC1=Nc2ccc(Cl)cc2CN1)c1ccccc1 [PR 27, N -(6-chloro-3,4-dihydroquinazolin-2-yl)benzenesulfonamide]	1690 ± 422					
Nc1nc2ccccc2n1S(=O)(=O)c1ccccc1 [PR 1, 1-(benzenesulfonyl)-1H-1,3-benzodiazol-2-amine]	2160 ± 539					
O=S(=O)(NC1=Nc2ccc(F)cc2CN1)c1cccc2ccccc12 [PR 55, N -(6-fluoro-3,4-dihydroquinazolin-2-yl)naphthalene-1-sulfonamide]	1790 ± 412					206 to 210
CN(c1nc2ccccc2n1C)S(=O)(=O)c1ccc2ccccc2c1 [PR 12, N -methyl-N-(1-methyl-1H-1,3-benzodiazol-2-yl)naphthalene-2-sulfonamide]	41900 ± 10500					
O=S(=O)(NC1=Nc2ccccc2CN1)c1ccc(-c2ccccc2)cc1 [PR 26, N -(3,4-dihydroquinazolin-2-yl)-[1,1′-biphenyl]-4-sulfonamide]	4310 ± 1080					
O=S(=O)(NC1=Nc2ccc(N3CCOCC3)cc2CN1)c1cccc2ccccc12 [PR 65, N -[6-(morpholin-4-yl)-3,4-dihydroquinazolin-2-yl]naphthalene-1-sulfonamide]	4700 ± 1080					278 to 281
N#Cc1cccc(S(=O)(=O)n2c(N)nc3ccccc32)c1 [PR 2, 3-[(2-amino-1H-1,3-benzodiazol-1-yl)sulfonyl]benzonitrile]	49200 ± 1230					

More lines, now with the values ahead:

Ki [1] [nM]	CHI C18 pH 2.6 [2]	CHI C18 pH 7.4 [2]	CHI C18 pH 10.5 [2]	CHI IAM [3]	melting point [°C]	Compound
997 ± 249	114.1	111.3	116.7	49.3	109 to 116	CC1NC(NS(=O)(=O)c2cccc3ccccc23)=Nc2c(Cl)cc(Cl)cc21 (centres unmarked) [PR 72, N -(6,8-dichloro-4-methyl-3,4-dihydroquinazolin-2-yl)naphthalene-1-sulfonamide]
704 ± 176						Nc1nc2cc(Cl)ccc2n1S(=O)(=O)c1cccc2ccccc12 [PR 6, 5-chloro-1-(naphthalene-1-sulfonyl)-1H-1,3-benzodiazol-2-amine]
372 ± 93					144 to 153	CC1NC(NS(=O)(=O)c2cccc3ccccc23)=Nc2ccc(Cl)cc21 (centres unmarked) [PR 69, N -(6-chloro-4-methyl-3,4-dihydroquinazolin-2-yl)naphthalene-1-sulfonamide]
948 ± 212						O=S(=O)(NC1=NCc2cc(Cl)ccc2N1)c1ccc2ccccc2c1 [PR 32, N -(6-chloro-3,4-dihydroquinazolin-2-yl)naphthalene-2-sulfonamide]
609 ± 152	95.2	94.6	97.7	42.6	208 to 211	O=S(=O)(NC1=Nc2ccccc2CN1)c1cc(Cl)cc(Cl)c1 [PR 23, 3,5-dichloro-N-(3,4-dihydroquinazolin-2-yl)benzene-1-sulfonamide]
151 ± 35						CN(C)c1cccc2c1CNC(NS(=O)(=O)c1cccc3ccccc13)=N2 [PR 63, N -[5-(dimethylamino)-3,4-dihydroquinazolin-2-yl]naphthalene-1-sulfonamide]
293 ± 73						O=S(=O)(NC1=Nc2ccccc2CN1)c1cccc(Cl)c1Cl [PR 20, 2,3-dichloro-N-(3,4-dihydroquinazolin-2-yl)benzene-1-sulfonamide]
148 ± 37						Nc1nc2ccccc2n1S(=O)(=O)c1cccc2ccccc12 [PR 3, 1-(naphthalene-1-sulfonyl)-1H-1,3-benzodiazol-2-amine]
133 ± 33					267 to 270	O=S(=O)(NC1=Nc2cccc(Cl)c2CN1)c1c(Cl)ccc2ccccc12 [PR 52, 2-chloro-N-(5-chloro-3,4-dihydroquinazolin-2-yl)naphthalene-1-sulfonamide]
330 ± 83						Nc1nc2ccccc2n1S(=O)(=O)c1ccc2ccccc2c1 [PR 4, 1-(naphthalene-2-sulfonyl)-1H-1,3-benzodiazol-2-amine]
668 ± 156	97.6	97.1	95.9	44.6	214 to 219	O=S(=O)(NC1=Nc2cc(Cl)ccc2CN1)c1cccc2ccccc12 [PR 48, N -(7-chloro-3,4-dihydroquinazolin-2-yl)naphthalene-1-sulfonamide]
653 ± 151	93.2	93.0	93.7	41.6	166 to 175	Cc1ccc2c(c1)N=C(NS(=O)(=O)c1cccc3ccccc13)NC2 [PR 62, N -(7-methyl-3,4-dihydroquinazolin-2-yl)naphthalene-1-sulfonamide]
876 ± 201	91.0	89.0	95.4	40.5	222 to 226	O=S(=O)(NC1=Nc2cc(F)ccc2CN1)c1cccc2ccccc12 [PR 56, N -(7-fluoro-3,4-dihydroquinazolin-2-yl)naphthalene-1-sulfonamide]
736 ± 169					103 to 105	O=S(=O)(NC1=Nc2ccccc2CN1)c1cccc2cccc(Cl)c12 [PR 45, 8-chloro-N-(3,4-dihydroquinazolin-2-yl)naphthalene-1-sulfonamide]
702 ± 152						CC1NC(NS(=O)(=O)c2ccc3ccccc3c2)=Nc2ccccc21 (centres unmarked) [PR 34, N -(4-methyl-3,4-dihydroquinazolin-2-yl)naphthalene-2-sulfonamide]
